Results from patent US5194645A, “Trans-Pt (IV) compounds” (Johnson Matthey Public Limited Company, priority 1991, dated 1993).

Legend:
41M ® = experiment: In vitro cytotoxicity (SRB), 41M ®; assay type: cell-based, human; details: 41M ® (cisplatin resistant), ovarian cancer, 48 to 96 hours
Protocol: (§1) Additional in vitro biological testing was conducted using cell lines derived from human carcinomas and maintained at the Institute of Cancer Research, Sutton, England (see C A Hills & colleagues, Br J Cancer 59, 527-34 (1989)). Monolayer cells were trypsinized and seeded in 96-well microtiter plates at a density of 1×10^4 cells/well in 200 μl of growth medium. Cells were incubated overnight and test compounds were added to triplicate wells at various concentrations for a total of 48 to 96 hours. For toxicity analysis after drug exposure, the cells were fixed with trichloroacetic acid and stained for cellular protein content by incubation for 30 minutes with 0.4% (wt/vol) sulforodamine B (SRB) dissolved in 1% acetic acid. The unbound dye was removed by 1% acetic acid washes, and the bound dye was extracted with 10 mM Tris buffer. The amount of dye in solution was quantified by absorbance at 564 nm.
(§2) In the Tables A and B below, all the cells are ovarian cancer cells with the exception of GCT27^R /GCT27 which are testicular. Table A gives IC50 values in μM; Table B gives Resistance Factors as a ratio of IC50 for a cell line bred to be resistant to cisplatin against IC50 for the nonresistant cell line.

A2780 ® = experiment: In vitro cytotoxicity (SRB), A2780 ®; assay type: cell-based, human; details: A2780 ® (cisplatin resistant), ovarian cancer, 48 to 96 hours
Protocol: as §1, §2

41M ®/41M = experiment: Resistance factor 41M ®/41M; assay type: cell-based, human; details: ratio of IC50 resistant to nonresistant line, ovarian
Protocol: as §1, §2

SKOV-3 = experiment: In vitro cytotoxicity (SRB), SKOV-3; assay type: cell-based, human; details: SKOV-3, ovarian cancer, 48 to 96 hours
Protocol: as §1, §2

CHI = experiment: In vitro cytotoxicity (SRB), CHI; assay type: cell-based, human; details: ovarian cancer, 48 to 96 hours
Protocol: as §1, §2

HX62 = experiment: In vitro cytotoxicity (SRB), HX62; assay type: cell-based, human; details: HX62, ovarian cancer, 48 to 96 hours
Protocol: as §1, §2

A2780 = experiment: In vitro cytotoxicity (SRB), A2780; assay type: cell-based, human; details: A2780, ovarian cancer, 48 to 96 hours
Protocol: as §1, §2

CHI ®/CHI = experiment: Resistance factor CHI ®/CHI; assay type: cell-based, human; details: ratio of IC50 resistant to nonresistant line, ovarian
Protocol: as §1, §2

41M = experiment: In vitro cytotoxicity (SRB), 41M; assay type: cell-based, human; details: ovarian cancer, 48 to 96 hours
Protocol: as §1, §2

CHI ® = experiment: In vitro cytotoxicity (SRB), CHI ®; assay type: cell-based, human; details: CHI ® (cisplatin resistant), ovarian cancer, 48 to 96 hours
Protocol: as §1, §2

A2780 ®/A2780 = experiment: Resistance factor A2780 ®/A2780; assay type: cell-based, human; details: ratio of IC50 resistant to nonresistant line, ovarian
Protocol: as §1, §2

GCT27 ®/GCT27 = experiment: Resistance factor GCT27 ®/GCT27; assay type: cell-based, human; details: ratio of IC50 resistant to nonresistant line, testicular
Protocol: as §1, §2

OVCAR-3 [1] = experiment: In vivo OVCAR-3 ovarian carcinoma xenograft; design: species or system mice; details: tumour volume vs control
Adj/PC6/cisplatin res = experiment: In vivo Adj/PC6 cisplatin-resistant tumour test in mice; design: key to ED90: --: indicates 90% inhibition not achieved for doses up to LD50
Protocol: (§3) The animals were sacrificed when moribund. The compounds were administered parenterally (ip).

Adj/PC6/iproplatin res = experiment: In vivo Adj/PC6 iproplatin-resistant tumour test in mice; design: key to ED90: --: indicates 90% inhibition not achieved for doses up to LD50
Protocol: as §3

Adj/PC6/tetraplatin res = experiment: In vivo Adj/PC6 tetraplatin-resistant tumour test in mice
Protocol: as §3

OVCAR-3 [2] = experiment: In vivo OVCAR-3 ovarian carcinoma xenograft; design: species or system mice; details: delay in doubling of tumour volume vs control
Protocol: The "growth delay" was also measured which represents the delay in achieving a doubling of the tumour volume for the treated group compared to the control group.

Adj/PC6 = experiment: In vivo Adj/PC6 tumour test in mice (LD50, ED90, therapeutic index)
Protocol: The Adj/PC6 testing was carried out as described by P M Goddard et al presented in Sixth NCI-EORTC Symposium on New Drugs in Cancer Therapy 1989, which is a development of the basic method described by T A Connors et al, Chem Biol Interact 5, 415(1972). The in vivo L1210 tests were conducted according to the NCI protocol, Cancer Chemotherapy Reports, Part 3, vol 2, (Sept 1972) except that the animals used were DBA/2 mice and that dosing was carried out on days 1, 5 and 9. The animals were sacrificed when moribund. The compounds were administered parenterally (ip).
In the Adj/PC6 testing, LD50 and ED90 values in mg/kg body weight were determined in the conventional manner. The therapeutic index (TI) was calculated as the ratio of LD50 to ED90, and the results are shown below.
Additional tests were carried out in vivo using the compound of Example 2, against sensitive Adj/PC6 tumour cell lines, and against tumour cell lines resistant to various platinum anti-tumour agents, and a TI (Therapeutic Index) calculated, as described above.

PXN/94 = experiment: In vitro cytotoxicity (SRB), PXN/94; assay type: cell-based, human; details: PXN/94, ovarian cancer, 48 to 96 hours
Protocol: as §1, §2

[3] = Adj/PC6, comparison with cis-isomer

| Compound | IC50 (41M ®) | IC50 (A2780 ®) | Resistance Factor 41M ®/41M (41M ®/41M) | IC50 (SKOV-3) | IC50 (CHI) | IC50 (HX62) | IC50 (A2780) | Resistance Factor CHI ®/CHI (CHI ®/CHI) | IC50 (41M) | IC50 (CHI ®) | Resistance Factor A2780 ®/A2780 (A2780 ®/A2780) | ED90 (Adj/PC6; Adj/PC6 testing, mice, ip) | LD50 (Adj/PC6; Adj/PC6 testing, mice, ip) | TI (therapeutic index, ratio of LD50 to ED90) (Adj/PC6; Adj/PC6 testing, mice, ip) | IC50 (PXN/94) | other results |
| --- | --- | --- | --- | --- | --- | --- | --- | --- | --- | --- | --- | --- | --- | --- | --- | --- |
| C[NH][Pt]([NH2])([OH])([OH])([Cl])[Cl] [EX 6, trans-[PtCl2 (OH)2 NH3 (MeNH2)]] | 33 µM | 64 µM | 6.1 | 72 µM | 12.5 µM | 110 µM | 6.2 µM | 2.4 | 5.4 µM | 30.5 µM | 10.3 |  |  |  |  |  |
| N.N.[Cl][Pt][Cl] [Cisplatin, cis-[PtCl2 (NH3)2], reference compound] |  |  | 4.7 |  |  |  |  | 6.4 |  |  | 15.7 |  |  |  |  | Resistance Factor GCT27 ®/GCT27 (GCT27 ®/GCT27): 6.2 |
| ctc[PtCl2 (OH) NH3(c-C6 H11 NH2)] [Cis-isomer, reference compound] |  |  |  |  |  |  |  |  |  |  |  |  |  |  |  | T/C (day 28) (OVCAR-3 [1]; 2 mg/kg): 0.636; T/C (day 28) (OVCAR-3 [1]; 4 mg/kg): 0.427; T/C (day 28) (OVCAR-3 [1]; 8 mg/kg): 0.599; ED90 (Adj/PC6/cisplatin res): --; LD50 (Adj/PC6/cisplatin res): 8.8 mg/kg; ED90 (Adj/PC6/iproplatin res): --; LD50 (Adj/PC6/iproplatin res): 8.8 mg/kg; ED90 (Adj/PC6/tetraplatin res): 12 mg/kg; LD50 (Adj/PC6/tetraplatin res): > 12.5 mg/kg; TI (Therapeutic Index) (Adj/PC6/tetraplatin res): > 1; Growth Delay (OVCAR-3 [2]; 2 mg/kg): 4.3 days; Growth Delay (OVCAR-3 [2]; 4 mg/kg): 15.2 days; Growth Delay (OVCAR-3 [2]; 8 mg/kg): 5.5 days; ED90 (Adj/PC6; [3]): 1.4 mg/kg; LD50 (Adj/PC6; [3]): 17.5 mg/kg; TI (Therapeutic Index) (Adj/PC6; [3]): 13 |
| [NH2][Pt]([OH])([OH])([Cl])([Cl])[NH]Cc1ccccc1 [B, t[PtCl2 (OH2)NH3 (PhCH2 NH2)]] | 1.35 µM | 4.2 µM | 1.0 | 8.2 µM | 1.12 µM | 10.2 µM | 1.06 µM | 1.7 | 1.3 µM | 1.95 µM | 4.0 |  |  |  |  |  |
| trans-[PtCl2 (OH)2 NH3 (C10 H21 NH2)] [EX 8] | 5.3 µM | 14.1 µM |  | 25 µM | 14 µM | 23 µM | 2.9 µM |  | 12 µM | 14.6 µM |  |  |  |  |  |  |
| CC[N](CC)[Pt]([NH2])([OH])([OH])([Cl])[Cl] [EX 10, t-[PtCl2 (OH)2 NH3 (Et2 NH)]] | 0.8 µM | 11.6 µM |  | 12.1 µM | 3.3 µM | 3.2 µM | 1.9 µM |  | 1.8 µM | 4.6 µM |  |  |  |  |  |  |
| [NH2][Pt]([OH])([OH])([Cl])([Cl])[N]1CCOCC1 [EX 7, trans-[PtCl2 (OH)2 NH3 (morpholine)]] | 54 µM | 47 µM | 2.1 | 47 µM | 17.3 µM | 100 µM | 10.9 µM | 1.6 | 26 µM | 28.3 µM |  | 94 mg/kg body weight | 82 mg/kg body weight | < 1 | 50 µM |  |
| C1CN2CCC1CC2.[NH2][Pt]([OH])([OH])([Cl])[Cl] [EX 11, t-[PtCl2 (OH)2 NH3 (quinuclidine)]] | 9.5 µM | 16 µM |  | 27 µM | 10.2 µM | 40 µM | 3.2 µM |  | 14.4 µM | 14.3 µM |  |  |  |  |  |  |
| t-[PtCl2 (OH)2 NH3 (exo-2-aminonorbornane)] | 1.47 µM |  | 1.0 | 4.4 µM | 1.4 µM | 5.6 µM |  | 1.2 | 1.4 µM | 1.7 µM |  | < 6.25 mg/kg body weight | 15.5 mg/kg body weight | > 2.5 | 3.2 µM |  |
| [NH2][Pt]([OH])([OH])([Cl])([Cl])[NH]C1CCCC1 [EX 1, trans-[PtCl2 (OH)2 (NH3)(c-C5 H9 NH2)]] | 1.3 µM | 5.2 µM | 1.2 | 7 µM | 1.15 µM | 10.2 µM | 0.95 µM | 1.7 | 1.1 µM | 1.9 µM | 5.5 |  |  |  |  |  |
| CC(C)[NH][Pt]([NH2])([OH])([OH])([Cl])[Cl] [EX 3, trans-[PtCl2 (OH)2 (NH3)((CH3)2 CHNH2)]] | 4.6 µM |  | 1.4 | 9.2 µM | 2.4 µM | 14 µM |  | 2.3 | 3.2 µM | 5.5 µM |  | 10.5 mg/kg body weight | 18 mg/kg body weight | 1.7 | 8.3 µM |  |
| CC(C)(C)[NH][Pt]([NH2])([OH])([OH])([Cl])[Cl] [EX 4, trans-[PtCl2 (OH)2 NH3 (t-C4 H9 NH2)]] | 0.9 µM |  | 0.8 | 4.7 µM | 0.74 µM | 1.8 µM |  | 2.2 | 1.1 µM | 1.6 µM |  | 4.7 mg/kg body weight | 35 mg/kg body weight | 7.4 | 3 µM |  |
